Patent US11603378B2, “Azole silane compound” (Atotech Deutschland GmbH, priority 2018, dated 2023)

Assays:
Format in all cases: physicochemical
[1] = Solubility test: time until 50 g/L of compound is fully dissolved in glycol ether solvent; settings: approx. 22° C., constant stirring, test carried out for 30 minutes; for t [min] DEGBE (time until fully dissolved): 50 g/L in diethylene glycol monobutyl ether; for t [min] EGBE (time until fully dissolved): 50 g/L in ethylene glycol monobutyl ether
Experimental: In a solubility test, solubility in diethylene glycol monobutyl ether (DEGBE) and ethylene glycol monobutyl ether (EGBE) as solvents was tested at approximately 22° C. under constant stirring. For that, the azole silane compound of Formula (Ia), obtained in Example A), 1), and the reference compound of formula (X) were dissolved in respective samples (mixtures).
In each solubility test the time “t” was determined until an amount of the respective compound in its highly viscous state, corresponding in each case to a concentration of 50 g/L of the azole silane compound (approximately corresponding to 5 wt.-%, based on the total weight of a respective test composition), was fully dissolved in the respective solvent. Each solubility test was carried out for 30 minutes.

[2] = Stability test of alkaline storage solution (precipitation in dependence of pH); design: key to precipitation, storage solution: xx = strong precipitation; x = little, insignificant precipitation; 0 = no precipitation; settings: for precipitation, storage solution: 50° C., 4 wt.-% in 20 wt.-% water / 76 wt.-% DEGBE
Experimental: C-2i) Alkaline Storage Solution: In a first stability test, stability of a compound of formula (Ib) obtained in Example A), 3) was further investigated in dependence of the pH. For that purpose, various storage solutions (according to the present invention and not according to the present invention) have been prepared each comprising 200 mL/L water (corresponding to approximately 20 wt.-%), 800 mL/L DEGBE (corresponding to approximately 76 wt.-%), and a compound of formula (Ib) in a total amount of 4 wt.-%, based on the total weight of the respective storage solution. The various pH values were obtained by adding sodium hydroxide or sulfuric acid. The stability was evaluated after 1, 7, and 15 days by carefully determining the presence of any precipitates. During the stability tests, the temperature of each storage solution was 50° C.

[3] = Stability test of aqueous working solution (precipitation at various pH); design: key: xx = strong precipitation; x = little, insignificant precipitation; 0 = no precipitation; settings: 50° C., approx. 1 wt.-%, 250 mL/L storage solution pH 11 + 750 mL/L water
Experimental: C-2ii) Aqueous Working Solution:
In a second stability test, stability of a compound of formula (Ib) also obtained in Example A), 3) was investigated at various pH values but with lower concentration compared to C-2i.
For that purpose, various working solutions (according to the present invention and not according to the present invention) have been prepared each comprising 250 mL/L of storage solution with pH 11 as described above under item C-2i and 750 mL/L water such that the compound of formula (Ib) was present in an total amount of approximately 1 wt.-%, based on the total weight of the respective working solution. The various pH values were obtained by adding sulfuric acid. The stability was evaluated after 14 days by carefully determining the presence of precipitates. During the stability tests, the temperature of each storage solution was kept constant at 50° C.

CO[Si](CCCOCC(O)CSc1nnc(N)s1)(OC)OC (stereo not shown) [formula (Ia)]
10 min: t [min] EGBE (time until fully dissolved) [1]
12 min: t [min] DEGBE (time until fully dissolved) [1]

CO[Si](CCCOCC(O)CSc1nnc(N)[nH]1)(OC)OC (stereo not shown) [formula (Ib)]
0: precipitation, storage solution ([2]; pH 11, 1 d) | precipitation, storage solution ([2]; pH 11, 7 d) | precipitation, storage solution ([2]; pH 11, 15 d) | precipitation, storage solution ([2]; pH 12, 1 d) | precipitation, storage solution ([2]; pH 12, 7 d) | precipitation, storage solution ([2]; pH 12, 15 d) | precipitation, working solution ([3]; pH 6, after 14 days) | precipitation, working solution ([3]; pH 7, after 14 days)
xx: precipitation, storage solution ([2]; pH 4, 1 d) | precipitation, storage solution ([2]; pH 4, 7 d) | precipitation, storage solution ([2]; pH 4, 15 d) | precipitation, storage solution ([2]; pH 7, 1 d) | precipitation, storage solution ([2]; pH 7, 7 d) | precipitation, storage solution ([2]; pH 7, 15 d) | precipitation, working solution ([3]; pH 4, after 14 days) | precipitation, working solution ([3]; pH 10, after 14 days)
x: precipitation, storage solution ([2]; pH 10, 1 d) | precipitation, storage solution ([2]; pH 10, 7 d) | precipitation, storage solution ([2]; pH 10, 15 d) | precipitation, working solution ([3]; pH 8, after 14 days)
stable: stability in DEGBE storage solution (in words) ([2]; comparatively high pH, concentrations of approximately 4 wt.-%)

CO[Si](CCCSc1nnc(N)[nH]1)(OC)OC [formula (X), reference compound]
> 30 min: t [min] EGBE (time until fully dissolved) [1]
25 min: t [min] DEGBE (time until fully dissolved) [1]
